According to US9725445B2, “Cycloalkyl nitrile pyrazolo pyridones as Janus kinase inhibitors” (Merck Sharp & Dohme Corp., priority 2013, dated 2017):

How the values were obtained:
JAK1 = JAK1 (Homo sapiens (Human), UniProt P23458); assay: Jak biochemical HTRF assay, JAK1; conditions: HTRF biochemical assay, recombinant GST-tagged catalytic domain; read-out: JAK1 IC50
JAK2 = JAK2 (Homo sapiens (Human), UniProt O60674); assay: Jak biochemical HTRF assay, JAK2; conditions: HTRF biochemical assay, recombinant GST-tagged catalytic domain; read-out: JAK2 IC50
Sequence of JAK2 (O60674 849-1124): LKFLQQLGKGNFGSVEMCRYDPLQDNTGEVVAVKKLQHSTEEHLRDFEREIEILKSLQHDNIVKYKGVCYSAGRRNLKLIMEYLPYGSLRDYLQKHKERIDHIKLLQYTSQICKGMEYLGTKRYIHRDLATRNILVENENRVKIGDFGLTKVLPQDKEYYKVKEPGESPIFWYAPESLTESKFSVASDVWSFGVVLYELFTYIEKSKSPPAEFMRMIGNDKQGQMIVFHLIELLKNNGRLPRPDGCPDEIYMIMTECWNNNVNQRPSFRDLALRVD
Description: Jak Biochemical HTRF Assay Protocol
The ability of compounds to inhibit the activity of JAK1, JAK2, JAK3, and Tyk2 was measured using a recombinant purified GST-tagged catalytic domain for each enzyme (Invitrogen JAK1 #M4290, JAK2 #M4290, JAK3 #M4290, Tyk2 #M4290) in an HTRF format biochemical assay. […] The basic assay protocol is as follows: First, 250 nL of diluted compounds in DMSO were dispensed into the wells of a dry 384-well Black plate (Greiner #781076) using a Labcyte Echo 555 acoustic dispenser. Subsequent reagent additions employed an Agilent Bravo. […] After equilibration, 2 μL of 10×ATP in 1× assay buffer was added to initiate the kinase reaction and the plates were shaken and then incubated at room temperature for 120 minutes. […] Plates were shaken and centrifuged and then incubated 60 minutes at room temperature and then read on a Perkin Elmer Envision (λex=337 nm, λem=665 and 615 nm, TRF delay time=20 μs). HTRF signal=10,000*665 nm reading/615 nm reading. After normalization to untreated controls, the percent inhibition of the HTRF signal at each compound concentration was calculated. The plot of percent inhibition versus the log of compound concentration was fit with a 4-parameter dose response equation to calculate IC50 values.
Final Reaction Conditions were:
Examples of the instant invention were evaluated in JAK1 and JAK2 in vitro binding assays.

Sequence of JAK1 (P23458 875-1153): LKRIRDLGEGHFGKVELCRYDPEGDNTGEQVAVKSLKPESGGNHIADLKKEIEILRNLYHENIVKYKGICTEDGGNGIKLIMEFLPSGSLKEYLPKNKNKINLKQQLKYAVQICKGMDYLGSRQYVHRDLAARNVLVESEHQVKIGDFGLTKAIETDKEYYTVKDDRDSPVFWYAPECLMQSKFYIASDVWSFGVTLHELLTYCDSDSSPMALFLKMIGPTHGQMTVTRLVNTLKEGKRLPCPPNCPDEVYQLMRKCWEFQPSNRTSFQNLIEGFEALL

IC50 (JAK1) | IC50 (JAK2) | SMILES
0.069 nM | 0.47 nM | N#C[C@H]1CCCC[C@@H]1n1nc(Nc2ccc3c(c2)CN([C@H]2CC[C@@H](C(=O)O)CC2)S3(=O)=O)c2c(=O)[nH]ccc21 [Example 16-2, (1S,4S)-4-(5-((1-((1S,2S)-2-cyanocyclohexyl)-4-oxo-4,5-dihydro-1H-pyrazolo[4,3-c]pyridin-3-yl)amino)-1,1-dioxidobenzo[d]isothiazol-2(3H)-yl)cyclohexanecarboxylic acid]
19 nM | 18 nM | CN(C(C)(C)C)S(=O)(=O)c1ccc(Nc2nn([C@H]3CCCCC[C@@H]3C#N)c3cc[nH]c(=O)c23)cc1 (single isomer, unassigned) [Example 15-48, N-tert-butyl-4-({1-[(1S,2S or 1R,2R)-2-cyanocycloheptyl]-4-oxo-4,5-dihydro-1H-pyrazolo[4,3-c]pyridin-3-yl}amino)-N-methylbenzenesulfonamide]
0.52 nM | 2.6 nM | CC(C)(O)c1cn(Cc2cccc(Nc3nn([C@H]4CCCC[C@@H]4C#N)c4cc[nH]c(=O)c34)c2)nn1 [Example 3-84, (1S,2S)-2-{3-[(3-{[4-(1-hydroxy-1-methylethyl)-1H-1,2,3-triazol-1-yl]methyl}phenyl)amino]-4-oxo-4,5-dihydro-1H-pyrazolo[4,3-c]pyridin-1-yl}cyclohexanecarbonitrile]
0.64 nM | 1.8 nM | N#C[C@H]1CCCC[C@@H]1n1nc(Nc2cccc(CNCC(F)(F)F)c2)c2c(=O)[nH]ccc21 [Example 3-39, (1S,2S)-2-{4-oxo-3-[(3-{[(2,2,2-trifluoroethyl)amino]methyl}phenyl)amino]-4,5-dihydro-1H-pyrazolo[4,3-c]pyridin-1-yl}cyclohexanecarbonitrile]
1.5 nM | 19 nM | CN(C)[C@@H]1CC[C@H](n2nc(Nc3ccc(Cl)c(F)c3)c3c(=O)[nH]ccc32)[C@@H](C#N)C1 [Example 5-1, (1S,2S,5R)-2-(3-((4-Chloro-3-fluorophenyl)amino)-4-oxo-4,5-dihydro-1H-pyrazolo[4,3-c]pyridin-1-yl)-5-(dimethylamino)cyclohexanecarbonitrile]
2.5 nM | 4 nM | CC(O)(CO)c1cccc(Nc2nn([C@H]3CCCC[C@@H]3C#N)c3cc[nH]c(=O)c23)c1 (stereo partly drawn) [Example 11-1, (1S,2S)-2-(3-((3-(1,2-Dihydroxypropan-2-yl)phenyl)amino)-4-oxo-4,5-dihydro-1H-pyrazolo[4,3-c]pyridin-1-yl)cyclohexanecarbonitrile]
0.64 nM | 5.7 nM | N#C[C@H]1CCC[C@@H]1n1nc(Nc2ccnc(F)c2)c2c(=O)[nH]ccc21 [Example 3-92, (1S,2S)-2-{3-[(2-fluoropyridin-4-yl)amino]-4-oxo-4,5-dihydro-1H-pyrazolo[4,3-c]pyridin-1-yl}cyclopentanecarbonitrile]
0.55 nM | 3.6 nM | N#C[C@H]1CCCC[C@@H]1n1nc(Nc2ccc(-c3ncno3)cc2)c2c(=O)[nH]ccc21 [Example 15-6, (1S,2S)-2-(3-{[4-(1,2,4-oxadiazol-5-yl)phenyl]amino}-4-oxo-4,5-dihydro-1H-pyrazolo[4,3-c]pyridin-1-yl)cyclohexanecarbonitrile]
0.43 nM | 0.41 nM | Cc1cc(Nc2nn([C@@H]3CCCCC[C@H]3C#N)c3cc[nH]c(=O)c23)ccc1C(=O)N1CCCC1 (single isomer, unassigned) [Example 15-45, (1R,2R or 1S,2S)-2-(3-{[3-methyl-4-(pyrrolidin-1-ylcarbonyl)phenyl]amino}-4-oxo-4,5-dihydro-1H-pyrazolo[4,3-c]pyridin-1-yl)cycloheptanecarbonitrile]
0.11 nM | 0.85 nM | N#C[C@H]1CCCC[C@@H]1n1nc(Nc2ccc(S(N)(=O)=O)cc2)c2c(=O)[nH]ccc21 [Example 3-7, 4-({1-[(1S,2S)-2-cyanocyclohexyl]-4-oxo-4,5-dihydro-1H-pyrazolo[4,3-c]pyridin-3-yl}amino)benzenesulfonamide]
0.88 nM | 31 nM | N#C[C@H]1C[C@H](N2CCC2)CC[C@@H]1n1nc(Nc2ccc(OC(F)(F)F)cc2)c2c(=O)[nH]ccc21 [Example 5-23, (1S,2S,5R)-5-(azetidin-1-yl)-2-(4-oxo-3-((4-(trifluoromethoxy)phenyl)amino)-4,5-dihydro-1H-pyrazolo[4,3-c]pyridin-1-yl)cyclohexanecarbonitrile]
0.38 nM | 3.9 nM | Cc1cc(Nc2nn([C@@H]3CCCCC[C@H]3C#N)c3cc[nH]c(=O)c23)ccc1C(O)C(F)(F)F (single isomer, unassigned) [Example 15-67, (1R,2R or 1S,2S)-2-[3-({3-methyl-4-[(1S or 1R)-2,2,2-trifluoro-1-hydroxyethyl]phenyl}amino)-4-oxo-4,5-dihydro-1H-pyrazolo[4,3-c]pyridin-1-yl]cycloheptanecarbonitrile]
0.91 nM | 5.8 nM | N#C[C@H]1CCCC[C@@H]1n1nc(Nc2cccc(CNC(=O)c3ncccn3)c2)c2c(=O)[nH]ccc21 [Example 3-17, N-[3-({1-[(1S,2S)-2-cyanocyclohexyl]-4-oxo-4,5-dihydro-1H-pyrazolo[4,3-c]pyridin-3-yl}amino)benzyl]pyrimidine-2-carboxamide]
0.25 nM | 1.2 nM | N#C[C@H]1CCCC[C@@H]1n1nc(Nc2cccc(Cn3cnnc3)c2)c2c(=O)[nH]ccc21 [Example 3-51, (1S,2S)-2-(4-oxo-3-{[3-(4H-1,2,4-triazol-4-ylmethyl)phenyl]amino}-4,5-dihydro-1H-pyrazolo[4,3-c]pyridin-1-yl)cyclohexanecarbonitrile]
1.16 nM | 5.5 nM | CC1(C)C(=O)c2cc(Nc3nn([C@H]4CCCC[C@@H]4C#N)c4cc[nH]c(=O)c34)ccc2S1(=O)=O [Example 3-171, (1S,2S)-2-{3-[(2,2-dimethyl-1,1-dioxido-3-oxo-2,3-dihydro-1-benzothiophen-5-yl)amino]-4-oxo-4,5-dihydro-1H-pyrazolo[4,3-c]pyridin-1-yl}cyclohexanecarbonitrile]
0.049 nM | 0.19 nM | COCC(C)(C)N1Cc2cc(Nc3nn([C@H]4CCCC[C@@H]4C#N)c4cc[nH]c(=O)c34)ccc2S1(=O)=O [Example 3-160, (1S,2S)-2-(3-{[2-(2-methoxy-1,1-dimethylethyl)-1,1-dioxido-2,3-dihydro-1,2-benzisothiazol-5-yl]amino}-4-oxo-4,5-dihydro-1H-pyrazolo[4,3-c]pyridin-1-yl)cyclohexanecarbonitrile]
7.8 nM | 525 nM | C[C@H](NC1CCC(n2nc(Nc3ccc(Cl)cc3)c3c(=O)[nH]ccc32)C(C#N)C1)C1CC1 (stereo in doubt) [Example 4-4, (1S,2S,5S)-2-(3-((4-Chlorophenyl)amino)-4-oxo-4,5-dihydro-1H-pyrazolo[4,3-c]pyridin-1-yl)-5-(((S)-1-cyclopropylethyl)amino)cyclohexanecarbonitrile]
0.35 nM | 6.5 nM | CC1(O)CN([C@@H]2CC[C@H](n3nc(Nc4ccc(Cl)cc4)c4c(=O)[nH]ccc43)[C@@H](C#N)C2)C1 [Example 5-21, (1S,2S,5R)-2-(3-((4-chlorophenyl)amino)-4-oxo-4,5-dihydro-1H-pyrazolo[4,3-c]pyridin-1-yl)-5-(3-hydroxy-3-methylazetidin-1-yl)cyclohexanecarbonitrile]
0.044 nM | 0.41 nM | CCN1Cc2cc(Nc3nn([C@H]4CCCC[C@@H]4C#N)c4cc[nH]c(=O)c34)ccc2S1(=O)=O [Example 3-60, (1S,2S)-2-{3-[(2-ethyl-1,1-dioxido-2,3-dihydro-1,2-benzisothiazol-5-yl)amino]-4-oxo-4,5-dihydro-1H-pyrazolo[4,3-c]pyridin-1-yl}cyclohexanecarbonitrile]
0.069 nM | 0.18 nM | N#C[C@H]1CCCC[C@@H]1n1nc(Nc2ccc3c(c2)CC2(CCOCC2)S3(=O)=O)c2c(=O)[nH]ccc21 [Example 21-3, (1S,2S)-2-{3-[(1,1-dioxido-2′,3′,5′,6′-tetrahydro-3H-spiro[1-benzothiophene-2,4′-pyran]-5-yl)amino]-4-oxo-4,5-dihydro-1H-pyrazolo[4,3-c]pyridin-1-yl}cyclohexanecarbonitrile]
1.3 nM | 1.7 nM | N#C[C@H]1CCCC[C@@H]1n1nc(Nc2cccc(CN3CCOCC3)c2)c2c(=O)[nH]ccc21 [Example 3-33, (1S,2S)-2-(3-{[3-(morpholin-4-ylmethyl)phenyl]amino}-4-oxo-4,5-dihydro-1H-pyrazolo[4,3-c]pyridin-1-yl)cyclohexanecarbonitrile]
0.45 nM | 3.2 nM | N#C[C@H]1CCCC[C@@H]1n1nc(Nc2ccccc2)c2c(=O)[nH]ccc21 [Example 3-25, (1S,2S)-2-[4-oxo-3-(phenylamino)-4,5-dihydro-1H-pyrazolo[4,3-c]pyridin-1-yl]cyclohexanecarbonitrile]
0.065 nM | 1.1 nM | N#CCCn1cc(-c2ccc(Nc3nn([C@H]4CCCC[C@@H]4C#N)c4cc[nH]c(=O)c34)cc2)cn1 [Example 15-14, (1S,2S)-2-[3-({4-[1-(2-cyanoethyl)-1H-pyrazol-4-yl]phenyl}amino)-4-oxo-4,5-dihydro-1H-pyrazolo[4,3-c]pyridin-1-yl]cyclohexanecarbonitrile]
